Measured values published in the METLIN SMRT retention time set (Domingo-Almenara et al. 2019).

Assay: gradient 5% acetonitrile 3 min, to 50% in 2 min, to 85% in 15 min, held 3 min, 100 µL/min
Settings: column: Zorbax Extend-C18 2.1 x 50 mm; eluents: water / acetonitrile, 0.1% formic acid
In short: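 Pure standards were run in mixtures of ~100 molecules by HPLC coupled to a quadrupole time-of-flight mass spectrometer. The column was a Zorbax Extend-C18 (2.1 × 50 mm, 1.8 μm) at 100 μL/min, with water and acetonitrile each containing 0.1% formic acid, in positive and negative ionization mode. Dead and dwell volumes were 40 μL and 900 μL. Retention time was taken from computationally picked adduct peaks, each manually inspected, with data collected over 3 months.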

| RP-LC retention time | SMILES |
| --- | --- |
| 916 s | Cc1cc(-c2nnc(-c3ccc(F)cc3)o2)c(C)n1CC(=O)Nc1ccc2c(c1)OCCO2 |
| 682 s | CC(C)N(CCCNC(=O)c1cc2sccc2n1C)Cc1ccccc1 |
| 927 s | CCc1ccc(N2CC(c3noc(-c4cc(OC)c(OC)c(OC)c4)n3)CC2=O)cc1 (stereo not given) |
| 1000 s | COC(=O)c1ccc(NC(=O)C2CCCN(S(=O)(=O)c3ccc(OC)c(C)c3)C2)cc1 (stereo not given) |
| 1050 s | Cc1ccccc1NC(=O)N1CCCC1c1nc(-c2cccc(Cl)c2)no1 (stereo not given) |
| 774 s | Cc1nc(-c2cc(S(=O)(=O)NCC(=O)NC3CCCC3)c(C)s2)no1 |
| 583 s | O=C(c1cc(-c2ccco2)[nH]n1)N1CCN(c2ccccn2)CC1 |
| 1070 s | O=C1CC(c2nc(-c3ccc(C(F)(F)F)cc3)no2)CN1c1ccc2c(c1)OCO2 (stereo not given) |
| 654 s | CCC(CC)NC(=O)CCC1CCN(c2cc(NC3CC3)ncn2)CC1 |
| 606 s | CCCOc1cc(N2CCN(S(=O)(=O)CCC)CC2)nc(C)n1 |
| 1070 s | O=C(Cc1ccccc1)NCc1nc(-c2cccc(-c3csc(C4CC4)n3)c2)no1 |
| 627 s | CC(C(=O)N1CCC(N2CCCCC2)CC1)C1CCN(S(=O)(=O)c2cccs2)CC1 (stereo not given) |
| 731 s | CC1CCCN(C(=O)C2CCN(S(=O)(=O)c3ccc4c(c3)CCCC(=O)N4)CC2)C1 (stereo not given) |
| 758 s | CCn1cc(-c2ccc(Cl)cc2)cc1C(=O)NC(C)c1cccnc1 (stereo not given) |
| 787 s | Cc1cc(C)c2sc(N3CCN(C(=O)C4CCCN(S(C)(=O)=O)C4)CC3)nc2c1 (stereo not given) |
| 687 s | CCc1nc(-c2cc3ccccc3nc2N2CCN(c3ccc(OC)cc3)CC2)no1 |
| 672 s | CCc1nccn1Cc1noc(-c2ccc(C)c(C)c2)n1 |
| 779 s | COCC(=O)N1CCC(Oc2nccnc2N2CCc3ccccc32)C1 (stereo not given) |
| 663 s | CCOC(=O)c1c(C)c(CCC(=O)NCc2cn[nH]c2C)n(C)c1C |
| 821 s | CCCN(CC1CCOC1)C(=O)c1cc(F)ccc1Cl (stereo not given) |
| 629 s | c1ccc(CCNc2nnc(-c3nc(C4CC4)no3)c3ccccc23)nc1 |
| 840 s | Cc1ccc(Nc2ncccc2S(N)(=O)=O)c(F)c1 |
| 1050 s | O=S(=O)(c1ccc(C2CCCCC2)cc1)N1CCOCC1 |

| RP-LC retention time | SMILES |
| --- | --- |
| 734 s | COC(=O)c1ncn2c1C(=O)N(c1cc(C)cc(C)c1)C(C)(C(=O)NC1CCCC1)C2 (stereo not given) |
| 578 s | CCCNC(=O)c1ccc(-c2nc3cc(NS(=O)(=O)c4cnc[nH]4)ccc3n2C)cc1 |
| 760 s | Cc1ccc(S(=O)(=O)Nc2ccc(Cn3cncn3)cc2)cc1Cl |
| 552 s | CN(C)[C@@H]1CN(C(=O)c2n[nH]c3ccccc23)C[C@H]1CO |
| 684 s | Cc1nc(N2CCN(Cc3ccc4c(c3)OCO4)CC2)nc2c1C(=O)CC(C)C2 (stereo not given) |
| 775 s | Clc1ccc(-c2noc(CN3CCOCC3)n2)cc1 |
| 609 s | O=C(NCC1CCS(=O)(=O)C1)c1ccc2nsnc2c1 (stereo not given) |
| 883 s | O=S(=O)(c1ccc(-c2cc(C(F)(F)F)on2)s1)N1CCN(c2ccccn2)CC1 |
| 681 s | CCn1cc(C(=O)N[C@H](C(=O)O)C(C)C)c(=O)c2cc3c(cc21)OCO3 |
| 1080 s | COc1ccc(CNC(=O)Cn2ccc3ccc(-c4nnc(C)o4)cc32)cc1 |
| 703 s | COc1ccc(N2CC(c3nnc(NC(=O)c4ccccc4Br)o3)CC2=O)cc1 (stereo not given) |
| 890 s | O=C(NCCC1CCN(S(=O)(=O)c2ccc(F)cc2)CC1)NC1CCCCC1 |
| 723 s | Cc1ccoc1C(=O)N1CC(F)(F)C[C@H]1c1nc(C2CC2)no1 |
| 896 s | Cc1oc(-c2ccc(NC(=O)CC3CCCC3)cc2)nc1Cn1cccn1 |
| 673 s | CCCn1c(CCNC(=O)c2cc(F)ccc2F)nc2cccnc21 |
| 699 s | CC(C)CCNC(=O)C1CC(=O)N(c2n[nH]c3cccc(F)c23)C1 (stereo not given) |
| 673 s | COc1ccc(Cl)cc1C(=O)NCc1c(C)nc2sc(C)nn12 |
| 701 s | Cc1cccc2nc(-c3ccc(Cl)cc3)c(Nc3ccc4c(c3)OCCO4)n12 |
| 938 s | Cc1noc(/C=C\c2ccc(S(=O)(=O)N3CCCCC3C)cc2)c1NC(=O)C1CC1 (stereo not given) |
| 737 s | Nc1nc(N2CCc3ccccc3C2)ncc1C(=O)NCc1ccccc1 |
| 619 s | CCCn1ncc(N2CCC(C(=O)N3CCOCC3)CC2)cc1=O |
| 1030 s | COc1ccc(C)cc1NC(=O)C1CCN(S(C)(=O)=O)c2cc(C)ccc2O1 (stereo not given) |
| 691 s | CCOC(=O)Cc1n[nH]c(CSc2nc3ccccc3s2)n1 |

| RP-LC retention time | SMILES |
| --- | --- |
| 1170 s | CCn1cc(C(=O)Nc2ccc(F)c(F)c2)c(S(=O)(=O)N2CCC(C)CC2)n1 |
| 953 s | COc1cc(SC)ccc1C(=O)NCCc1c[nH]c2ccc(C)cc12 |
| 1070 s | CC(C)N1C(=O)C(C)(C(=O)Nc2cccc(Cl)c2)Oc2cccnc21 (stereo not given) |
| 718 s | O=C1NCC/C1=C\c1ccc(C(F)(F)F)cc1 |
| 594 s | Cc1nc2ccc(N)nc2nc1C |
| 755 s | COc1ccc(-c2nc3c(C)cccn3c2Nc2ccccc2C)cc1 |
| 1020 s | CC(C)Cn1ccc2c(cc(C(=O)Nc3ccc(OC(F)(F)F)cc3)n2C)c1=O |
| 777 s | CCc1noc(NC(C)=O)c1-c1ccc(OC)c(S(=O)(=O)Nc2ccc(OC)cc2OC)c1 |
| 872 s | COc1ccc(NC(=O)Cn2nc3cc(-c4ccc(OC)cc4)nc(C)n3c2=O)cc1 |
| 643 s | O=C(Cn1cnc2ccccc2c1=O)N1CCC(c2nnc(-c3ccco3)s2)CC1 |
| 843 s | Cc1cc(Cl)ccc1NC(=O)C1CC(=O)N(c2ccc3c(c2)CCN3C(=O)C2CC2)C1 (stereo not given) |
| 1050 s | Cc1cccc(C(=O)Nc2nc(-c3ccc4c(c3)N(C)C(=O)C(C)O4)cs2)c1 (stereo not given) |
| 669 s | COc1ccc(NC(=O)Cn2c(N3CCOCC3)nc(C)cc2=O)c(OC)c1 |
| 741 s | COc1ccc(C(=O)N2CCN(c3cc(-c4cccs4)[nH]n3)CC2)cc1OC |
| 619 s | CC(C)N1CCN(C(=O)C2CCc3sc(C(=O)N4CCCCCC4)cc3C2)CC1 (stereo not given) |
| 950 s | CN(Cc1ccccc1)C(=O)c1cc2cccnc2n(Cc2ccccc2)c1=O |
| 794 s | CCc1cccc(NC(=O)C2CCN(S(=O)(=O)c3cn(CC)cn3)CC2)c1 |
| 735 s | CCC(=O)Nc1cccn2nc(C3CCC3)nc12 |
| 590 s | CCC(=O)N1CCC(N2C(=O)C(O)C23CCCCC3)CC1 (stereo not given) |
| 844 s | CC(=O)[C@@]1(O)CC[C@H]2[C@@H]3C[C@H](C)C4=CC(=O)C=C[C@]4(C)[C@@]3(F)[C@@H](O)C[C@@]21C |
| 784 s | Cc1nn2c(CNC(=O)c3n[nH]c4c3CCCC4)c(-c3ccccc3)nc2s1 |
| 662 s | CC(=O)NCc1csc(C2CCN(C(=O)COc3ccc(F)cc3)CC2)n1 |
| 713 s | CCCS(=O)(=O)N1CCC(Cc2nncn2-c2ccccc2)CC1 |

| RP-LC retention time | SMILES |
| --- | --- |
| 963 s | Cc1sc(-c2nnc(C3CC3)o2)cc1NC(=O)c1ccc(N(C)C)cc1 |
| 719 s | CN1C(=O)c2ccccc2Oc2ccc(C(=O)N3CCCC3)cc21 |
| 736 s | Cn1ccc2c(cc(C(=O)NCCCc3ccccc3)n2C)c1=O |
| 752 s | Cc1ccc(CNC(=O)C2CCN(S(=O)(=O)c3ccc4c(c3)CCCC(=O)N4)CC2)cc1 |
| 596 s | Cn1cc(C(=O)N2CCOCC2)cc(NC(=O)c2cccs2)c1=O |
| 671 s | CCC(=O)N1CCC(Cc2noc(C3CC3)n2)C1 (stereo not given) |
| 588 s | CCCNc1cc(N2CCC(CCC(=O)NC3CC3)CC2)ncn1 |
| 701 s | O=C(c1ccco1)N1CCN(c2ccc(=O)n(-c3ccccc3)n2)CC1 |
| 702 s | CC(C)N1C(=O)c2cccnc2Sc2cc(C(=O)NC3CC3)ccc21 |
| 1110 s | COc1ccc(NS(=O)(=O)c2c(C)sc(C)c2-c2cc(C(F)(F)F)on2)cc1 |
| 997 s | CCS(=O)(=O)N1CC(=O)N(c2ccc(F)cc2C)C(C)(C(=O)NC2CCCCCCC2)C1 (stereo not given) |
| 846 s | CC12CC(NC(=O)N1c1cccc(C(=O)NCc3ccco3)c1)c1cc(Br)ccc1O2 (stereo not given) |
| 899 s | CCc1nc2onc(C)c2c(=O)n1CC(=O)NCCC1=CCCCC1 |
| 869 s | CCc1nc(-c2csc(S(=O)(=O)N3CCCC(C(=O)Nc4cccc(C)n4)C3)c2)no1 (stereo not given) |
| 1090 s | COc1ccc(-c2csc(NC(=O)Cc3csc(-c4ccccc4)n3)n2)cc1 |
| 1090 s | CCCn1cc(C(=O)NCCC2=CCCCC2)c2nn(-c3ccccc3)c(=O)c-2c1 |
| 795 s | CC(=O)c1ccc(S(=O)(=O)NCCC2CCN(C(=O)c3ccc(F)cc3)CC2)cc1 |
| 620 s | COc1ccc(C(=O)N2CC(n3cc(COCC4CC4)nn3)C2)cc1F |
| 681 s | CCCn1cnc2c(Sc3c([N+](=O)[O-])ncn3C)nc(N)nc21 |
| 886 s | Cc1cc2c(=O)n(CC(=O)Nc3cccc(C(F)(F)F)c3)ccc2s1 |

| SMILES | RP-LC retention time |
| --- | --- |
| O=C(CN1CC=C(c2cnn(-c3ccc(F)cc3)c2)CC1)NCC1CCCO1 (stereo not given) | 628 s |
